Measured values: the supplement of paper PMC12420376
± gives the uncertainty stated by the source.

Test system: OVCAR8
Assay: cancer cell viability relative to untreated control; higher = less cytotoxic
Settings: 72 h
Protocol: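 KURAMOCHI or OVCAR8 cells were grown in monoculture or in co-culture with WI38 or patient-derived 030F fibroblasts and treated for 72 h with a dose matrix of carboplatin combined with birinapant or vorinostat (doses in nM). Cancer cell viability was measured by CK8/18 immunofluorescence imaging and expressed as % of untreated control, given as mean with SD.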

O=C(O)C1(C(=O)O)CCC1.[NH2-].[NH2-].[Pt+2] [Carboplatin] + CC[C@H](NC(=O)[C@H](C)NC)C(=O)N1C[C@@H](O)C[C@H]1Cc1c(-c2[nH]c3cc(F)ccc3c2C[C@@H]2C[C@H](O)CN2C(=O)[C@H](CC)NC(=O)[C@H](C)NC)[nH]c2cc(F)ccc12 [Birinapant]
cancer cell viability [%]
Settings	partner drug concentration 0 nM	partner drug concentration 0.1 nM	partner drug concentration 1 nM	partner drug concentration 10 nM	partner drug concentration 100 nM	partner drug concentration 1000 nM
carboplatin concentration 10 nM, co-cultured fibroblast: 030F	95.9 ± 6	93.4 ± 11	86.9 ± 9.3	85.6 ± 9.1	53.2 ± 16	11.3 ± 6.2
carboplatin concentration 10 nM, co-cultured fibroblast: WI38	112 ± 7.4	112 ± 13	98.5 ± 3.4	99.2 ± 10	59.9 ± 7.1	9.28 ± 2.3
carboplatin concentration 10 nM, co-cultured fibroblast: none (monoculture)	100 ± 1.8	107 ± 8	102 ± 5.6	96.1 ± 3.5	68.1 ± 14	14.5 ± 8.1
carboplatin concentration 100 nM, co-cultured fibroblast: 030F	97.7 ± 8.1	89.9 ± 7.7	85.8 ± 6.7	92.3 ± 9.8	46 ± 6	12.3 ± 5.1
carboplatin concentration 100 nM, co-cultured fibroblast: WI38	103 ± 7.5	101 ± 12	102 ± 8.9	98.1 ± 9.8	52.4 ± 6.4	10.8 ± 3.5
carboplatin concentration 100 nM, co-cultured fibroblast: none (monoculture)	101 ± 7.5	99.5 ± 7.3	101 ± 7	103 ± 5.2	71.7 ± 5.3	13.4 ± 9.3
carboplatin concentration 1000 nM, co-cultured fibroblast: 030F	96.9 ± 6	83.5 ± 11	90.8 ± 12	96.9 ± 5.5	50.5 ± 11	14.7 ± 9.6
carboplatin concentration 1000 nM, co-cultured fibroblast: WI38	107 ± 7.5	98.1 ± 5.2	104 ± 12	92.6 ± 10	56.6 ± 7.3	9.2 ± 1.6
carboplatin concentration 1000 nM, co-cultured fibroblast: none (monoculture)	101 ± 4.5	102 ± 5.5	98.6 ± 7.6	105 ± 6.2	79.7 ± 8.2	16.3 ± 9.5
carboplatin concentration 1e+05 nM, co-cultured fibroblast: 030F	23.2 ± 13	34.9 ± 13	41.2 ± 21	34.2 ± 16	15.9 ± 5.7	8.74 ± 6.1
carboplatin concentration 1e+05 nM, co-cultured fibroblast: WI38	10.6 ± 4.3	36.2 ± 5.2	51.3 ± 13	40.3 ± 5.2	21.4 ± 11	3 ± 4.3
carboplatin concentration 1e+05 nM, co-cultured fibroblast: none (monoculture)	23.1 ± 5.3	61 ± 11	58.4 ± 9.8	60.6 ± 11	46.2 ± 17	6.42 ± 7.8
carboplatin concentration 10000 nM, co-cultured fibroblast: 030F	52.3 ± 8.9	72.4 ± 19	90.8 ± 33	85.1 ± 10	34.3 ± 8.1	9.13 ± 6.5
carboplatin concentration 10000 nM, co-cultured fibroblast: WI38	41.6 ± 4.1	82.3 ± 7.9	89.1 ± 11	95.9 ± 9.6	49.7 ± 9.4	7.2 ± 2.6
carboplatin concentration 10000 nM, co-cultured fibroblast: none (monoculture)	56.5 ± 10	90.3 ± 5.2	92.5 ± 12	100 ± 5.6	64.8 ± 13	12.6 ± 10

O=C(O)C1(C(=O)O)CCC1.[NH2-].[NH2-].[Pt+2] [Carboplatin] + O=C(CCCCCCC(=O)Nc1ccccc1)NO [Vorinostat]
cancer cell viability [%]
Settings	partner drug concentration 0 nM	partner drug concentration 1 nM	partner drug concentration 10 nM	partner drug concentration 100 nM	partner drug concentration 1000 nM	partner drug concentration 10000 nM
carboplatin concentration 10 nM, co-cultured fibroblast: 030F	95.9 ± 6	98.7 ± 15	97.7 ± 14	61.9 ± 40	16.7 ± 16	1.47 ± 1.9
carboplatin concentration 10 nM, co-cultured fibroblast: WI38	112 ± 7.4	95.4 ± 13	93.8 ± 14	57.2 ± 39	13 ± 16	-0.353 ± 1.1
carboplatin concentration 10 nM, co-cultured fibroblast: none (monoculture)	100 ± 1.8	118 ± 40	106 ± 46	77.6 ± 58	12.5 ± 21	-1.11 ± 5.8
carboplatin concentration 100 nM, co-cultured fibroblast: 030F	97.7 ± 8.1	88.3 ± 30	82.6 ± 14	53.7 ± 39	17.5 ± 13	0.669 ± 1
carboplatin concentration 100 nM, co-cultured fibroblast: WI38	103 ± 7.5	98.1 ± 13	88.4 ± 12	53.3 ± 45	11.5 ± 13	-0.268 ± 1.1
carboplatin concentration 100 nM, co-cultured fibroblast: none (monoculture)	101 ± 7.5	108 ± 30	109 ± 53	58.4 ± 53	20.6 ± 33	-0.748 ± 5.1
carboplatin concentration 1000 nM, co-cultured fibroblast: 030F	96.9 ± 6	93 ± 13	94.1 ± 8.3	50.7 ± 23	15.3 ± 10	1.7 ± 2.6
carboplatin concentration 1000 nM, co-cultured fibroblast: WI38	107 ± 7.5	96.1 ± 12	86 ± 10	45.4 ± 31	14.6 ± 14	-0.251 ± 1.1
carboplatin concentration 1000 nM, co-cultured fibroblast: none (monoculture)	101 ± 4.5	111 ± 33	102 ± 42	63.4 ± 60	17.2 ± 28	-1.67 ± 3.8
carboplatin concentration 1e+05 nM, co-cultured fibroblast: 030F	23.2 ± 13	30.2 ± 16	32.9 ± 16	22.8 ± 10	15.3 ± 4.8	0.46 ± 0.81
carboplatin concentration 1e+05 nM, co-cultured fibroblast: WI38	10.6 ± 4.3	34.2 ± 13	33.1 ± 11	22.9 ± 10	13.3 ± 6	-0.83 ± 0.74
carboplatin concentration 1e+05 nM, co-cultured fibroblast: none (monoculture)	23.1 ± 5.3	57.5 ± 16	51.6 ± 20	24.6 ± 11	17.1 ± 15	-3.4 ± 2
carboplatin concentration 10000 nM, co-cultured fibroblast: 030F	52.3 ± 8.9	78.3 ± 22	64.7 ± 25	37.2 ± 17	19.1 ± 13	1.01 ± 1.3
carboplatin concentration 10000 nM, co-cultured fibroblast: WI38	41.6 ± 4.1	74.9 ± 15	68.8 ± 21	47.1 ± 19	19 ± 15	-0.481 ± 0.83
carboplatin concentration 10000 nM, co-cultured fibroblast: none (monoculture)	56.5 ± 10	89.7 ± 22	89.7 ± 37	65.2 ± 49	26.8 ± 33	-0.768 ± 5.4
